Results: PMC6708471 (Cell calcium, 2019)

What was measured:
[1] = molecular target: T1, calmodulin (CaM) (Homo sapiens, UniProt P0DP25); assay: X-ray crystal structure; assay type: biochemical
[2] = molecular target: T1, calmodulin (CaM); assay: […]-1H HSQC NMR titration; assay type: binding

Structure (SMILES)	EC50 [1] [µM]	15N-1H HSQC NMR titration (intermediate exchange, modest affinity) [2]
COc1ccc(S(=O)(=O)N(CCO)c2ccccc2CN(C)C/C=C/c2ccc(Cl)cc2)cc1 [KN93]	5.1 ± 1.4	–
COc1ccc(S(=O)(=O)Nc2ccccc2CN(C)C/C=C/c2ccc(Cl)cc2)cc1 [KN92]	–	We found that KN92 also affects the CaM NMR spectrum as many of the cross peaks disappear.
